Measured values published in patent US20230372498A1, “PLK1 SELECTIVE DEGRADATION INDUCING COMPOUND” (UPPTHERA, priority 2020, published 2023).

Target: T1, PLK1 (Homo sapiens, UniProt P53350)
T1 construct: endogenous in cells; host or cells: HeLa
Assay: PLK1 protein degradation in HeLa cells, Western blotting (PLK1/GAPDH ratio)
Type: cell-based
Conditions: 6 hours compound incubation; for DC50: measured only if the grade of Dmax is A or B; for Dmax: thymidine block and release, 10 points three-fold from 3 μM, PLK1 to GAPDH ratio, read-out: Dmax
Procedure, shortened: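 Thymidine-synchronised HeLa cells (2 mM, 24 h) released 4 h into complete medium, then treated 6 h with compound in 10-point 3-fold dilutions from 3 μM. RIPA lysates (15 μg protein) run on SDS-PAGE; PLK1 Western blot normalised to GAPDH.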

T1 sequence (P53350 whole entry): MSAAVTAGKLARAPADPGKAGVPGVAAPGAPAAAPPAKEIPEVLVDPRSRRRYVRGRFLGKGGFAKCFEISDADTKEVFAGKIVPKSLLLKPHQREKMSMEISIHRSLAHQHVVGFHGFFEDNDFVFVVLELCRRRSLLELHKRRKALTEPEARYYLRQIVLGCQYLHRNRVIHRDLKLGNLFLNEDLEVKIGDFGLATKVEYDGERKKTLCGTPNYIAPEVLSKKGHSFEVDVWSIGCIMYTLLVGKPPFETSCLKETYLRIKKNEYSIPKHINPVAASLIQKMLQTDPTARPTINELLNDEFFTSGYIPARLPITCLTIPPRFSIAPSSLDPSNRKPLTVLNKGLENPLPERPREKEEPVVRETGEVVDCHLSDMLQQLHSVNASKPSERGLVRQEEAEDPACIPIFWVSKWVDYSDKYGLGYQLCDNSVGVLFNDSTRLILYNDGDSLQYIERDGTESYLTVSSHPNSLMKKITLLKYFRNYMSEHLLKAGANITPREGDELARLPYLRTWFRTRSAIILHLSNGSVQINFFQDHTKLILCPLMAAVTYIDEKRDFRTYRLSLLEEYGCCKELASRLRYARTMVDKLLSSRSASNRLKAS

| SMILES | DC50 | Dmax |
| --- | --- | --- |
| COc1cc(C(=O)NC2CCN(CCOCCCNc3cccc4c3C(=O)N(C3CCC(=O)NC3=O)C4=O)C2)c(F)cc1Nc1ncc2c(n1)N(C1CCCC1)CC(F)(F)C(=O)N2C (stereo not shown) [Example 110, 4-((9-cyclopentyl-7,7-difluoro-5-methyl-6-oxo-6,7,8,9-tetrahydro-5H-pyrimido[4,5-b][1,4]diazepin-2-yl)amino)-N-(1-(2-(3-((2-(2,6-dioxopiperidin-3-yl)-1,3-dioxoisoindolin-4-yl)amino)propoxy)ethyl)pyrrolidin-3-yl)-2-fluoro-5-methoxybenzamide] | ≤ 50 nM | ≥ 80% |
| COc1cc(C(=O)NC2CCN(Cc3ccc(OCCOCCOCCNc4cccc5c4C(=O)N(C4CCC(=O)NC4=O)C5=O)cc3)CC2)c(F)cc1Nc1ncc2c(n1)N(C1CCCC1)CC(F)(F)C(=O)N2C (stereo not shown) [Compound 41, 4-((9-cyclopentyl-7,7-difluoro-5-methyl-6-oxo-6,7,8,9-tetrahydro-5H-pyrimido[4,5-b][1,4]diazepin-2-yl)amino)-N-(1-(4-(2-(2-(2-((2-(2,6-dioxopiperidin-3-yl)-1,3-dioxoisoindolin-4-yl)amino)ethoxy)ethoxy)ethoxy)benzyl)piperidin-4-yl)-2-fluoro-5-methoxybenzamide] | ≤ 50 nM | ≥ 80% |
| COc1cc(C(=O)N[C@H]2CCN(C(=O)CN3CCN(c4ccc5c(c4)C(=O)N(C4CCC(=O)NC4=O)C5=O)CC3)C2)c(F)cc1Nc1ncc2c(n1)N(C1CCCC1)CC(F)(F)C(=O)N2C (stereo partly drawn) [Compound 135, 4-((9-cyclopentyl-7,7-difluoro-5-methyl-6-oxo-6,7,8,9-tetrahydro-5H-pyrimido[4,5-b][1,4]diazepin-2-yl)amino)-N-((3S)-1-(2-(4-(2-(2,6-dioxopiperidin-3-yl)-1,3-dioxoisoindolin-5-yl)piperazin-1-yl)acetyl)pyrrolidin-3-yl)-2-fluoro-5-methoxybenzamide] | ≤ 50 nM | ≥ 80% |
| COc1cc(C(=O)N[C@H]2CCN(C(=O)CCNC(=O)CNc3cccc4c3C(=O)N(C3CCC(=O)NC3=O)C4=O)C2)c(F)cc1Nc1ncc2c(n1)N(C1CCCC1)CC(F)(F)C(=O)N2C (stereo partly drawn) [Compound 113, 4-((9-cyclopentyl-7,7-difluoro-5-methyl-6-oxo-6,7,8,9-tetrahydro-5H-pyrimido[4,5-b][1,4]diazepin-2-yl)amino)-N-((3S)-1-(3-(2-((2-(2,6-dioxopiperidin-3-yl)-1,3-dioxoisoindolin-4-yl)amino)acetamido)propanoyl)pyrrolidin-3-yl)-2-fluoro-5-methoxybenzamide] |  | < 60% |
| CCOc1cc(C(=O)NC2CCN(CCOCCOCCNc3cccc4c3C(=O)N(C3CCC(=O)NC3=O)C4=O)CC2)c(F)cc1Nc1ncc2c(n1)N(C1CCCC1)CC(F)(F)C(=O)N2C (stereo not shown) [Example 90, 4-((9-cyclopentyl-7,7-difluoro-5-methyl-6-oxo-6,7,8,9-tetrahydro-5H-pyrimido[4,5-b][1,4]diazepin-2-yl)amino)-N-(1-(2-(2-(2-((2-(2,6-dioxopiperidin-3-yl)-1,3-dioxoisoindolin-4-yl)amino)ethoxy)ethoxy)ethyl)piperidin-4-yl)-5-ethoxy-2-fluorobenzamide] | ≤ 500 nM | 60 to 80% |
| COc1cc(C(=O)NC2CCN(CCOCCOCCOCCOCCNc3cccc4c3C(=O)N(C3CCC(=O)NC3=O)C4=O)C2)c(F)cc1Nc1ncc2c(n1)N(C1CCCC1)CC(F)(F)C(=O)N2C (stereo not shown) [Example 108, 4-((9-cyclopentyl-7,7-difluoro-5-methyl-6-oxo-6,7,8,9-tetrahydro-5H-pyrimido[4,5-b][1,4]diazepin-2-yl)amino)-N-(1-(14-((2-(2,6-dioxopiperidin-3-yl)-1,3-dioxoisoindolin-4-yl)amino)-3,6,9,12-tetraoxatetradecyl)pyrrolidin-3-yl)-2-fluoro-5-methoxybenzamide] | ≤ 50 nM | ≥ 80% |
| COc1cc(C(=O)NCC2CCCCN2CCOCCNc2cccc3c2C(=O)N(C2CCC(=O)NC2=O)C3=O)c(F)cc1Nc1ncc2c(n1)N(C1CCCC1)CC(F)(F)C(=O)N2C (stereo not shown) [Compound 126, 4-((9-cyclopentyl-7,7-difluoro-5-methyl-6-oxo-6,7,8,9-tetrahydro-5H-pyrimido[4,5-b][1,4]diazepin-2-yl)amino)-N-((1-(2-(2-((2-(2,6-dioxopiperidin-3-yl)-1,3-dioxoisoindolin-4-yl)amino)ethoxy)ethyl)piperidin-2-yl)methyl)-2-fluoro-5-methoxybenzamide] | ≤ 500 nM | 60 to 80% |
| CN1C(=O)C(F)(F)CN(C2CCCC2)c2nc(Nc3ccc(C(=O)NC4CCN(C(=O)CCCNc5cccc6c5C(=O)N(C5CCC(=O)NC5=O)C6=O)CC4)cc3)ncc21 (stereo not shown) [Example 102, 4-((9-cyclopentyl-7,7-difluoro-5-methyl-6-oxo-6,7,8,9-tetrahydro-5H-pyrimido[4,5-b][1,4]diazepin-2-yl)amino)-N-(1-(4-((2-(2,6-dioxopiperidin-3-yl)-1,3-dioxoisoindolin-4-yl)amino)butanoyl)piperidin-4-yl)benzamide] | ≤ 50 nM | ≥ 80% |
| COc1cc(C(=O)NC2CCN(CCOCCCCCCCCOCC(=O)Nc3cccc4c3C(=O)N(C3CCC(=O)NC3=O)C4=O)CC2)c(F)cc1Nc1ncc2c(n1)N(C1CCCC1)CC(F)(F)C(=O)N2C (stereo not shown) [Compound 28, 4-((9-cyclopentyl-7,7-difluoro-5-methyl-6-oxo-6,7,8,9-tetrahydro-5H-pyrimido[4,5-b][1,4]diazepin-2-yl)amino)-N-(1-(2-((8-(2-((2-(2,6-dioxopiperidin-3-yl)-1,3-dioxoisoindolin-4-yl)amino)-2-oxoethoxy)octyl)oxy)ethyl)piperidin-4-yl)-2-fluoro-5-methoxybenzamide] | ≤ 500 nM | 60 to 80% |
| COc1cc(C(=O)NC2CCN(CCN3CCN(c4cccc5c4C(=O)N(C4CCC(=O)NC4=O)C5=O)CC3)CC2)c(F)cc1Nc1ncc2c(n1)N(C1CCCC1)CC(F)(F)C(=O)N2C (stereo not shown) [Compound 66, 4-((9-cyclopentyl-7,7-difluoro-5-methyl-6-oxo-6,7,8,9-tetrahydro-5H-pyrimido[4,5-b][1, 4]diazepin-2-yl)amino)-N-(1-(2-(4-(2-(2,6-dioxopiperidin-3-yl)-1,3-dioxoisoindolin-4-yl)piperazin-1-yl)ethyl)piperidin-4-yl)-2-fluoro-5-methoxybenzamide] | ≤ 500 nM | 60 to 80% |
| COc1cc(C(=O)NC2CCN(CCOCCOCCNc3cccc4c3C(=O)N(C3CCC(=O)N(C)C3=O)C4=O)CC2)c(F)cc1Nc1ncc2c(n1)N(C1CCCC1)CC(F)(F)C(=O)N2C (stereo not shown) [Compound 6, 4-((9-cyclopentyl-7,7-difluoro-5-methyl-6-oxo-6,7,8,9-tetrahydro-5H-pyrimido[4,5-b][1,4]diazepin-2-yl)amino)-2-fluoro-5-methoxy-N-(1-(2-(2-(2-((2-(1-methyl-2,6-dioxopiperidin-3-yl)-1,3-dioxoisoindolin-4-yl)amino)ethoxy)ethoxy)ethyl)piperidin-4-yl)benzamide] |  | < 60% |
| COc1cc(C(=O)NC2CCN(CCOCCOCC#Cc3cccc4c3C(=O)N(C3CCC(=O)NC3=O)C4=O)CC2)c(F)cc1Nc1ncc2c(n1)N(C1CCCC1)CC(F)(F)C(=O)N2C (stereo not shown) [Compound 54, 4-((9-cyclopentyl-7,7-difluoro-5-methyl-6-oxo-6,7,8,9-tetrahydro-5H-pyrimido[4,5-b][1,4]diazepin-2-yl)amino)-N-(1-(2-(2-((3-(2-(2,6-dioxopiperidin-3-yl)-1,3-dioxoisoindolin-4-yl)prop-2-yn-1-yl)oxy)ethoxy)ethyl)piperidin-4-yl)-2-fluoro-5-methoxybenzamide] | ≤ 500 nM | 60 to 80% |
